In the NIST ThermoML archive (doi:10.1016/j.fluid.2016.12.025):

Columns and labels:
[1] = refractive index (Na D-line) (dimensionless); xn = mol fraction of the nth substance listed; details: 298.2 K, 101 kPa, Liquid, Standard Abbe refractometry
[2] = xn = mol fraction of the nth substance listed; details: 298.2 K, 101 kPa, Liquid, Vibrating tube method
[3] = refractive index (Na D-line) (dimensionless); details: 298.2 K; 101.33 kPa; Liquid; Standard Abbe refractometry
[4] = 298.2 K; 101.33 kPa; Liquid; Vibrating tube method

CCCCOC(C)=O [butyl ethanoate] + CCCCCCO
Details	mass density, [2] [kg/m3]	refractive index, [1]
x1 = 0.0503	818.79	1.4144
x1 = 0.1001	821.75	1.4131
x1 = 0.2012	827.7	1.4104
x1 = 0.3007	833.61	1.4078
x1 = 0.4001	839.54	1.4053
x1 = 0.4999	845.54	1.4029
x1 = 0.6004	851.63	1.4005
x1 = 0.6991	857.64	1.3982
x1 = 0.8003	863.85	1.396
x1 = 0.8953	869.76	1.3939
x1 = 0.9452	872.86	1.3929

CC(C)CCO [3-methylbutan-1-ol]
Details	mass density [kg/m3]	refractive index
[3]	–	1.4061
[4]	808.94	–

CCCCOC(C)=O [butyl ethanoate]
Details	mass density [kg/m3]	refractive index
[3]	–	1.3918
[4]	876.26	–

CC(C)CCO [3-methylbutan-1-ol] + CCCCCCO
Details	mass density, [2] [kg/m3]	refractive index, [1]
x1 = 0.0496	815.43	1.4154
x1 = 0.0997	815.12	1.4149
x1 = 0.2005	814.49	1.414
x1 = 0.3003	813.86	1.4131
x1 = 0.3986	813.22	1.4121
x1 = 0.4998	812.55	1.4111
x1 = 0.6001	811.87	1.4101
x1 = 0.7002	811.17	1.4091
x1 = 0.8	810.46	1.4081
x1 = 0.8998	809.73	1.4069
x1 = 0.9504	809.35	1.4064

CCCCO [butan-1-ol]
Details	mass density [kg/m3]	refractive index
[3]	–	1.3973
[4]	806.01	–

CCCCCCO [hexan-1-ol]
Details	mass density [kg/m3]	refractive index
[3]	–	1.4161
[4]	815.88	–

CCCCCCO [hexan-1-ol] + CCCCO
Details	mass density, [2] [kg/m3]	refractive index, [1]
x2 = 0.0543	815.53	1.4148
x2 = 0.099	815.22	1.4142
x2 = 0.2042	814.42	1.4126
x2 = 0.2993	813.64	1.4111
x2 = 0.4052	812.7	1.4094
x2 = 0.4994	811.8	1.4078
x2 = 0.5938	810.85	1.406
x2 = 0.7005	809.72	1.4038
x2 = 0.8004	808.58	1.4017
x2 = 0.9003	807.35	1.3997
x2 = 0.9499	806.7	1.3985

CC(C)CCO [3-methylbutan-1-ol] + CCCCOC(C)=O
Details	mass density, [2] [kg/m3]	refractive index, [1]
x2 = 0.0497	812.53	1.4049
x2 = 0.104	816.52	1.4039
x2 = 0.1998	823.52	1.4021
x2 = 0.2999	830.68	1.4005
x2 = 0.3999	837.66	1.399
x2 = 0.5001	844.46	1.3976
x2 = 0.6006	851.08	1.3962
x2 = 0.7	857.56	1.395
x2 = 0.8003	863.93	1.3939
x2 = 0.9005	870.23	1.3928
x2 = 0.9466	873.08	1.3923

CC(C)CCO [3-methylbutan-1-ol] + CCCCO
Details	mass density, [2] [kg/m3]	refractive index, [1]
x2 = 0.0498	808.87	1.4056
x2 = 0.0999	808.78	1.4053
x2 = 0.1999	808.58	1.4045
x2 = 0.3	808.35	1.4037
x2 = 0.4	808.09	1.4029
x2 = 0.4999	807.81	1.402
x2 = 0.6016	807.5	1.4009
x2 = 0.7015	807.16	1.3998
x2 = 0.7999	806.8	1.3988
x2 = 0.9007	806.41	1.3981
x2 = 0.9506	806.21	1.3978
